According to patent US20130072430A1, “METHODS FOR TREATMENT OR PROPHYLAXIS OF KIDNEY OR LIVER DYSFUNCTION” (NPS PHARMACEUTICALS, INC., priority 2010, published 2013):

System: Human patients with short bowel syndrome
Assay: Example 1: kidney diagnostic biomarkers (urea nitrogen, creatinine, GFR) in short bowel syndrome patients, every four weeks for 24 weeks
Format: in vivo
Parameters: CREATININE (RATE BLANKED) Change from Baseline, Median / GFR, Median / GFR Change from Baseline, Median / UREA NITROGEN, Median / UREA NITROGEN Change from Baseline, Median: unit not given here
Conditions: for CREATININE (RATE BLANKED), Median: unit assumed
Method: Human patients with short bowel syndrome were divided into three groups: a control group (16 total individuals) to receive placebo, an experimental group (35 total individuals) to receive teduglutide at 0.05 mg/kg/day throughout the study, and an experimental group (32 total individuals) to receive teduglutide at 0.1 mg/kg/day throughout the study. Patients were treated by subcutaneous injection of placebo or the appropriate dose of teduglutide. As individuals with short bowel syndrome are likely to experience associated liver and kidney disease, known biomarkers of liver and kidney function were monitored every four weeks, for 24 weeks. The liver biomarkers tested included total bilirubin, ALT and AST and ALP. The kidney biomarkers tested included urea nitrogen, creatinine and GFR. Before administration of placebo or teduglutide, diagnostic biomarker levels were tested to establish a baseline for each individual.
To visualize the effect of GLP-2 on the levels of the diagnostic biomarkers, the average change from baseline was calculated for the placebo and teduglutide treated groups for each visit after a baseline was established. The average change from baseline of each group is depicted in FIGS. […]. The numerical figures for each diaanostic biomarker at each time point are depicted in Table 1.
The raw data for this sorting is reproduced in Table 2 below.

[1] = Week 4, range <−5%, teduglutide 0.05 mg/kg/day
[2] = Week 4, range <−5%, teduglutide 0.1 mg/kg/day
[3] = Week 4, range >5%, teduglutide 0.05 mg/kg/day
[4] = Week 4, range >5%, teduglutide 0.1 mg/kg/day
[5] = Week 4, range −5%<= and <=5%, teduglutide 0.05 mg/kg/day
[6] = Week 4, range −5%<= and <=5%, teduglutide 0.1 mg/kg/day
[7] = Week 8, range <−5%, teduglutide 0.05 mg/kg/day
[8] = Week 8, range <−5%, teduglutide 0.1 mg/kg/day
[9] = Week 8, range >5%, teduglutide 0.05 mg/kg/day
[10] = Week 8, range >5%, teduglutide 0.1 mg/kg/day
[11] = Week 8, range −5%<= and <=5%, teduglutide 0.05 mg/kg/day
[12] = Week 8, range −5%<= and <=5%, teduglutide 0.1 mg/kg/day
[13] = Week 12, range <−5%, teduglutide 0.05 mg/kg/day
[14] = Week 12, range <−5%, teduglutide 0.1 mg/kg/day
[15] = Week 12, range >5%, teduglutide 0.05 mg/kg/day

## CC[C@H](C)[C@H](NC(=O)[C@H](Cc1ccccc1)NC(=O)[C@H](CC(=O)O)NC(=O)[C@H](CCCNC(=N)N)NC(=O)[C@H](C)NC(=O)[C@H](C)NC(=O)[C@H](CC(C)C)NC(=O)[C@H](CC(N)=O)NC(=O)[C@H](CC(=O)O)NC(=O)[C@H](CC(C)C)NC(=O)[C@@H](NC(=O)[C@@H](NC(=O)[C@H](CC(N)=O)NC(=O)[C@H](CCSC)NC(=O)[C@H](CCC(=O)O)NC(=O)[C@H](CC(=O)O)NC(=O)[C@H](CO)NC(=O)[C@H](Cc1ccccc1)NC(=O)[C@H](CO)NC(=O)CNC(=O)[C@H](CC(=O)O)NC(=O)CNC(=O)[C@@H](N)Cc1c[nH]cn1)[C@@H](C)O)[C@@H](C)CC)C(=O)N[C@@H](CC(N)=O)C(=O)N[C@@H](Cc1c[nH]c2ccccc12)C(=O)N[C@@H](CC(C)C)C(=O)N[C@H](C(=O)N[C@@H](CCC(N)=O)C(=O)N[C@H](C(=O)N[C@@H](CCCCN)C(=O)N[C@H](C(=O)N[C@H](C(=O)N[C@@H](CC(=O)O)C(=O)O)[C@@H](C)O)[C@@H](C)CC)[C@@H](C)O)[C@@H](C)CC [teduglutide]
0.10 mg/kg/day, DW20
  GFR, Median: 76.1
  UREA NITROGEN Change from Baseline, Mean (SD): −0.0 (1.60)
  UREA NITROGEN Change from Baseline, Median: −0.1
  UREA NITROGEN, Mean (SD): 6.3 (1.91)
  UREA NITROGEN, Median: 6.0
  CREATININE (RATE BLANKED), Median: 88 µmol/L
0.10 mg/kg/day, DW24
  CREATININE (RATE BLANKED) Change from Baseline, Mean (SD): −2.0 (13.18)
  CREATININE (RATE BLANKED) Change from Baseline, Median: 0.0
  CREATININE (RATE BLANKED), Mean (SD): 82.0 (22.35)
  GFR Change from Baseline, Mean (SD): 4.6 (16.73)
  GFR Change from Baseline, Median: 2.3
  GFR, Mean (SD): 82.4 (27.05)
  GFR, Median: 81.1
  UREA NITROGEN Change from Baseline, Mean (SD): −0.2 (1.87)
  UREA NITROGEN Change from Baseline, Median: 0.3
  UREA NITROGEN, Mean (SD): 6.1 (1.98)
  UREA NITROGEN, Median: 5.9
  CREATININE (RATE BLANKED), Median: 81 µmol/L
[1]
  CREATININE (RATE BLANKED) change from baseline: patients in range, n(%): 7(20.0%)
  GFR change from baseline: patients in range, n(%): 13(37.1%)
  UREA NITROGEN change from baseline: patients in range, n(%): 16(45.7%)
[2]
  CREATININE (RATE BLANKED) change from baseline: patients in range, n(%): 12(37.5%)
  GFR change from baseline: patients in range, n(%): 7(21.9%)
  UREA NITROGEN change from baseline: patients in range, n(%): 10(31.3%)
[3]
  CREATININE (RATE BLANKED) change from baseline: patients in range, n(%): 14(40.0%)
  GFR change from baseline: patients in range, n(%): 8(22.9%)
  UREA NITROGEN change from baseline: patients in range, n(%): 7(20.0%)
[4]
  CREATININE (RATE BLANKED) change from baseline: patients in range, n(%): 7(21.9%)
  GFR change from baseline: patients in range, n(%): 14(43.8%)
  UREA NITROGEN change from baseline: patients in range, n(%): 15(46.9%)
[5]
  CREATININE (RATE BLANKED) change from baseline: patients in range, n(%): 9(25.7%)
  GFR change from baseline: patients in range, n(%): 9(25.7%)
  UREA NITROGEN change from baseline: patients in range, n(%): 7(20.0%)
[6]
  CREATININE (RATE BLANKED) change from baseline: patients in range, n(%): 13(40.6%)
  GFR change from baseline: patients in range, n(%): 11(34.4%)
  UREA NITROGEN change from baseline: patients in range, n(%): 7(21.9%)
[7]
  CREATININE (RATE BLANKED) change from baseline: patients in range, n(%): 11(31.4%)
  GFR change from baseline: patients in range, n(%): 9(25.7%)
  UREA NITROGEN change from baseline: patients in range, n(%): 14(40.0%)
[8]
  CREATININE (RATE BLANKED) change from baseline: patients in range, n(%): 8(25.0%)
  GFR change from baseline: patients in range, n(%): 9(28.1%)
  UREA NITROGEN change from baseline: patients in range, n(%): 9(28.1%)
[9]
  CREATININE (RATE BLANKED) change from baseline: patients in range, n(%): 10(28.6%)
  GFR change from baseline: patients in range, n(%): 12(34.3%)
  UREA NITROGEN change from baseline: patients in range, n(%): 10(28.6%)
[10]
  CREATININE (RATE BLANKED) change from baseline: patients in range, n(%): 13(40.6%)
  GFR change from baseline: patients in range, n(%): 9(28.1%)
  UREA NITROGEN change from baseline: patients in range, n(%): 15(46.9%)
[11]
  CREATININE (RATE BLANKED) change from baseline: patients in range, n(%): 8(22.9%)
  GFR change from baseline: patients in range, n(%): 7(20.0%)
  UREA NITROGEN change from baseline: patients in range, n(%): 5(14.3%)
[12]
  CREATININE (RATE BLANKED) change from baseline: patients in range, n(%): 10(31.3%)
  GFR change from baseline: patients in range, n(%): 13(40.6%)
  UREA NITROGEN change from baseline: patients in range, n(%): 7(21.9%)
[13]
  CREATININE (RATE BLANKED) change from baseline: patients in range, n(%): 7(20.0%)
  GFR change from baseline: patients in range, n(%): 15(42.9%)
  UREA NITROGEN change from baseline: patients in range, n(%): 17(48.6%)
[14]
  CREATININE (RATE BLANKED) change from baseline: patients in range, n(%): 9(28.1%)
  GFR change from baseline: patients in range, n(%): 11(34.4%)
  UREA NITROGEN change from baseline: patients in range, n(%): 13(40.6%)
[15]
  CREATININE (RATE BLANKED) change from baseline: patients in range, n(%): 16(45.7%)
  GFR change from baseline: patients in range, n(%): 6(17.1%)
  UREA NITROGEN change from baseline: patients in range, n(%): 6(17.1%)
